Experiments:
[1] = tested on: high-risk cardiac surgical patients undergoing cardiopulmonary bypass
Description: (§1) Body weight adjusted dose of study medication was achieved by infusion of 154 mEq/L of sodium bicarbonate (Pfizer, Bentley, WA, Australia) or sodium chloride (Astra Zeneca, North Ryde, NSW, Australia) diluted in 5% dextrose (Baxter, Sydney, NSW, Australia) and H2O at an infusion rate of 3 mL kg^−1 h^−1 for 1 hour immediately after the induction of anesthesia, prior to the first surgical incision followed by continuous infusion at an infusion rate of 1 mL kg^−1 n^−1 over 23 hours. Sodium bicarbonate or sodium chloride was administered at a dose of 0.45 mEq/kg body weight over 1 hour followed by continuous intravenous infusion of 0.15 mEq/kg/hr over 23 hours (total dose of 4 mEq/kg over 24 hours).
Additional secondary outcomes included changes in acid-base status, clinical outcomes such as need for renal replacement therapy, duration of ventilation, length of intensive care unit and hospital stay, and adverse events.
(§2) All data were analyzed according to the intention-to-treat principle. Continuous data were tested for normal distribution using histograms. Between-group comparisons for continuous data were performed with the use of the t test or the Mann-Whitney U test and for categorical data with the use of Fisher exact test or chi-square test where appropriate. All tests were 2-tailed and a P value <0.05 was taken to indicate statistical significance. Values were reported as means with standard error of the mean (SEM) and mean difference or odds ratio (OR) with 95% confidence interval (95% CI) estimate as appropriate.

[2] = tested on: high-risk cardiac surgical patients undergoing cardiopulmonary bypass; remark: listed apart in the source
Description: as §1
Specific adverse events targeted for detection included the incidence of hypernatremia ([Na^+]>150 mEq/L), hypokalemia ([K^+]<3.5 mEq/L), alkalemia (pH>7.50), post-operative atrial fibrillation and other post-operative arrhythmias (supraventricular arrhythmias, ventricular tachycardia and ventricular fibrillation) during study treatment.
as §2

[3] = tested on: high-risk cardiac surgical patients undergoing cardiopulmonary bypass; remark: listed apart in the source
Description: A double-blind, randomised, placebo controlled trial of the effect of sodium bicarbonate on postoperative renal function and oxidative stress in subjects undergoing elective cardiopulmonary bypass surgery was conducted.
The Human Research Ethics Committee of the Austin Hospital approved the trial and the Therapeutic Goods Administration of the Australian Government, Department of Health and Ageing approved the use of sodium bicarbonate for this indication. Written informed consent was obtained from each patient. Patients were identified in surgical pre-admission clinics and on hospital wards. Patients who were enrolled were at high risk of post-operative AKI and were scheduled for elective cardiac surgery necessitating the use of CPB at a university tertiary referral hospital (Austin Hospital) and a co-located large private hospital (Warringal Hospital). Those considered at high risk for post-operative AKI, defined as fulfilling one or more pre-defined inclusion criteria and no exclusion criteria, were considered eligible. Patients at particular risk of post-bypass renal injury were defined as having at least one of the following: (a) age >70; (b) preoperative creatinine […]; (c) New York Heart Association symptom severity class 3 or 4; (d) valve surgery; (e) insulin dependent diabetes mellitus; or (f) redo surgery.
as §1
The hospital pharmacy clinical trials coordinator used a Microsoft Excel-based (Microsoft Corp. Redmond, Wash., USA) random number generator to create the randomization list using a permuted block strategy with blocks of six. Infusion bags were each delivered in separate shrink-wrapped black plastic bags that were identical in appearance. Allocation concealment to patients, anesthesiologists, cardiac surgeons, intensive care specialists, bedside nurses and investigators (multiple blind) was ensured by central randomization through the Department of Pharmacy at the Austin Hospital.
The primary study outcome measure was the number of patients who developed post-operative acute kidney injury. This was defined as an increase in plasma creatinine concentration greater than 0.5 mg/dL (44 μmol/L) or greater than 25% from baseline to peak value at any time within the first five post-operative days. This definition is identical to that used in a recent large randomized controlled trial of cardiac surgery-associated AKI.
The renal secondary outcomes for this study were changes in plasma creatinine concentration within the first five post-operative days and in urinary neutrophil gelatinase-associated lipocalin (NGAL) concentration within the first 24 hours post-operatively. Creatinine was sampled daily and NGAL was sampled prior to induction of anesthesia, at 6 hours and at 24 hours after commencement of CPB. Creatinine was measured using the modified Jaffé method and NGAL as recently described (Mishra et al, 2005).
All data were analyzed according to the intention-to-treat principle. Continuous data were tested for normal distribution using histograms. Between-group comparisons for continuous data were performed with the use of the t test or the Mann-Whitney U test and for categorical data with the use of Fisher exact test or chi-square test where appropriate.

[4] = from before to 24 hours after commencement of study infusion, N = 50
[5] = sodium bicarbonate vs sodium chloride
[6] = sodium bicarbonate vs sodium chloride, P<0.001

`O=C([O-])O.[Na+]` [sodium bicarbonate] was tested, and the “urine pH” value ([1]; 6 and 24 hours after commencement of study drug infusion, P<0.001 vs control, FIG. 1C) was “induced urinary alkalinization”, the “Length of stay in hospital, mean (SEM)” value ([1]; N = 50, P=0.60) was 10.4 (1.0) days and the “Length of ventilation, mean (SEM)” value ([1]; N = 50, P=0.83) was 1657 (299) min. The “Length of stay in intensive care unit, mean (SEM)” value ([1]; N = 50, P=0.96) was 73.8 (14.0) hrs, the Hospital deaths ([1]; N = 50, P>0.99) was 1 (2) no. (%) and the Renal replacement therapy ([1]; N = 50, P>0.99) was 2 (4) no. (%). For the same molecule, the “Change in plasma base excess, mean (SEM)” value [1, 4] was 3.8 (0.5), the “Change in plasma bicarbonate, mean (SEM)” value [1, 4] was 3.7 (0.5) mEq/L and the “Change in plasma pH, mean (SEM)” value [1, 4] was 0.04 (0.01). For the same molecule, the “Length of stay in hospital, Mean Difference” value [1, 5] was -0.8 days, the “Length of stay in intensive care unit, Mean Difference” value [1, 5] was -1.0 h and the “Length of ventilation, Mean Difference” value [1, 5] was -99 min. For the same molecule, the “Change in plasma base excess, Mean Difference” value [1, 6] was 6.0, the “Change in plasma bicarbonate, Mean Difference” value [1, 6] was 5.2 mEq/L and the “Change in plasma pH, Mean Difference” value [1, 6] was 0.07. For the same molecule, the “patients with plasma sodium concentration >150 mEq/L (hypernatremia)” value ([2]; during study treatment, both groups) was “No patient”, the “patients with an episode of supraventricular tachycardia” value ([2]; during study treatment, of 50 patients) was “One” and the “patients with a pH level greater than 7.50 (alkalemia)” value ([2]; during study treatment, of 50 patients, P=0.24) was “three”. For the same molecule, the “incidence of new-onset atrial fibrillation” value ([2]; during treatment, patients/N, control 4/50, P>0.99) was 5/50, the “patients with plasma potassium <3.5 mEq/L (hypokalemia)” value ([2]; patients/N, control 1/50, P=0.20) was 5/50 and the “increase in urinary NGAL concentration” value ([3]; baseline to peak within first 24 hours post-operatively, compared to sodium chloride, P=0.009, FIG. 1B) was “attenuated”. For the same molecule, the “relative increase in plasma creatinine” value ([3]; baseline to peak within first five post-operative days, mean ± SEM, P=0.01 vs sodium chloride) was 28.5±6.5%, the “absolute increase in plasma creatinine concentration” value ([3]; compared to sodium chloride patients, P=0.01, FIG. 1A) was “less” and the “patients with a plasma creatinine increase greater than 50% from baseline to peak value” ([3]; patients/N, control 15/50) was 8/50. For the same molecule, the “patients who developed post-operative AKI” value ([3]; patients/N, plasma creatinine increase >0.5 mg/dL (44 μmol/L) or >25% from baseline to peak within first five post-operative days, 4 mEq/kg i.v. over 24 hours) was 16/50, the “odds ratio for post-operative AKI” value ([3]; vs. sodium chloride control group (26/50), 95% CI 0.19-0.98, P=0.04) was 0.43 and the “odds ratio for plasma creatinine increase greater than 50%” value ([3]; vs. sodium chloride control, 95% CI 0.17-1.17, P=0.10) was 0.44. The “absolute risk reduction for AKI” value ([3]; vs. sodium chloride control, 95% CI 1.1-39.0%) was 20%.

Reference: patent US20100266712A1, “Prevention of Acute Kidney Injury” (Austin Health, priority 2007, published 2010)
